The subject of this assay is 3eCIS (MsCYP72056). As to conditions: 250 µM NADPH; HEPES pH 7.5; 0-300 µM hirsuteine; CPR co-expressed.

The Km is the concentration of substrate that gives half-maximal velocity. As for `C=C[C@H]1CN2CCc3c([nH]c4ccccc34)[C@H]2C[C@@H]1/C(=C\OC)C(=O)OC` [hirsuteine], the Km was 68.3 µM.

For the origin of these results see paper PMC9936145, “Discovery of a cytochrome P450 enzyme catalyzing the formation of spirooxindole alkaloid scaffold” (Frontiers in Plant Science, 2023).
